In patent publication US5212187A, “Pyridyl alkylamine compounds which are useful against histamine H1 and H2 receptors” (Zyma SA, priority 1991, dated 1993):

Columns and labels:
histamine H1 -receptors = biological target: T1, histamine H1 -receptors (Cavia porcellus, UniProt P31389); assay: in vitro histamine H1-antagonism on isolated guinea pig ileum; conditions: cumulative concentration/action curves (van Rossum), read-out: H1 -antagonism ileum -log KB (converted)
T1 construct: isolated guinea pig ileum (H1); from tissue; host or cells: isolated guinea pig ileum
T1 sequence (P31389 whole entry): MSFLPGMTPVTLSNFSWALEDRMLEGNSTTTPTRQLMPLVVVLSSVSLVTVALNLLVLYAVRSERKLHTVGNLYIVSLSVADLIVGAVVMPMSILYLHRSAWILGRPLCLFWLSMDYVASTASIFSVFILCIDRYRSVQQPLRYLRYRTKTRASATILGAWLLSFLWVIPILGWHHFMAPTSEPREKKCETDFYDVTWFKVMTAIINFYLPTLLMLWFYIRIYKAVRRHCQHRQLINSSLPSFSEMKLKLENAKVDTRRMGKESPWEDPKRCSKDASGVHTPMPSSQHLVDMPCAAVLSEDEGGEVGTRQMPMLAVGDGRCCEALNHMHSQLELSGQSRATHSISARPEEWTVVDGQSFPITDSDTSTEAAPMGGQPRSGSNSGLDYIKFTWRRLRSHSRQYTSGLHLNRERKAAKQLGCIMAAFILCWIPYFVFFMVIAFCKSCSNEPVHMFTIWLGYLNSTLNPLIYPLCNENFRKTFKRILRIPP
Source text: (§1) The compounds of formula I according to the invention are distinguished by a novel overall pharmacological activity that has not been described hitherto. […] Suitable for differentiating the two types of action are, for example, in vitro tests on isolated spontaneously beating guinea pig right atrium (H2) and on isolated guinea pig ileum (H1) (Black, J. W.; Duncan, W. A. M.; Durant, G. J., Ganellin, C. R.; Parsons, M. E. (1972), "Definition and Antagonism of Histamine H2 -receptors", Nature 236, 385-390). The concentration/action curves for determining the pharmacological parameters (-log KB) are recorded using a cumulative technique according to van Rossum, J. M. (1963), "Cumulative Dose-Response Curves. II. Technique for the Making of Dose-Response Curves in Isolated Organs and the Evaluation of Drug Parameters", Arch. Int. Pharmacodyn. Ther. 143, 299-307.
(§2) (determined from isolated guinea pig ileum and atrium, […]

histamine H2 -receptors = biological target: T2, histamine H2 -receptors (Cavia porcellus, UniProt P47747); assay: in vitro histamine H2-antagonism on isolated spontaneously beating guinea pig right atrium; conditions: cumulative concentration/action curves (van Rossum), read-out: H2 -antagonism atrium -log KB (converted)
T2 construct: isolated spontaneously beating guinea pig right atrium (H2); from tissue; host or cells: isolated spontaneously beating guinea pig right atrium
T2 sequence (P47747 whole entry): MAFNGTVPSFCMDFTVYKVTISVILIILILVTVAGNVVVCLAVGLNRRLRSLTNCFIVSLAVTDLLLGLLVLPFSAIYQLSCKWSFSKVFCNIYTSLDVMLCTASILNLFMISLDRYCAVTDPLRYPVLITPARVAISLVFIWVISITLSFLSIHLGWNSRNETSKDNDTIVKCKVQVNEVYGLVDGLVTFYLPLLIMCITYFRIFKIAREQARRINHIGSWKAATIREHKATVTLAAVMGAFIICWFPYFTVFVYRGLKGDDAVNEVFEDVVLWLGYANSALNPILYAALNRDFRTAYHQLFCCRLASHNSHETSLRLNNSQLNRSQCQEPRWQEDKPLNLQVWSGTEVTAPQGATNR
Source text: as §1, §2

Kb (histamine H1 -receptors) [nM]	Kb (histamine H2 -receptors) [nM]	Structure (SMILES)
3.63	302	CN(CCCCCCNC(=NC#N)NCCSCc1csc(N=C(N)N)n1)CCN(Cc1ccc(F)cc1)c1ccccn1 [Example 84]
7.08	95.5	CN(CCCCCCCNC(=NCCSCc1csc(NC(=N)N)n1)NC#N)CCN(Cc1ccc(F)cc1)c1ccccn1 [Example 85, N-cyano-N'-[7-[N-[2-[N-(4-fluorobenzyl)-N-(2-pyridyl)amino]ethyl]-N-methylamino]heptyl]-N"-[2-[[(2-guanidino-4-thiazolyl)methyl]thio]ethyl]guanidine]
1.82	219	COc1ccc(CN(CCN(C)CCCCNC(=O)NCCSCc2csc(NC(=N)N)n2)c2ccccn2)cc1 [Example 88, N-[2-[[(2-guanidino-4-thiazolyl)methyl]thio]ethyl]-N'-[4-[N-[2-[N-(4-methoxybenzyl)-N-(2-pyridyl)amino]ethyl]-N-methylamino]butyl]urea]
1.74	174	COc1ccc(CN(CCN(C)CCCCCCNC(=O)NCCSCc2csc(NC(=N)N)n2)c2ccccn2)cc1 [Example 89, N-[2-[[(2-guanidino-4-thiazolyl)methyl]thio]ethyl]-N'-[6-[N-[2-[N-(4-methoxybenzyl)-N-(2-pyridyl)amino]ethyl]-N-methylamino]hexyl]urea]
1.58	141	CN(CCCCCCNC(=O)NCCSCc1csc(NC(=N)N)n1)CCN(Cc1ccc(F)cc1)c1ccccn1 [Example 94, N-[6-[N-[2-[N-(4-fluorobenzyl)-N-(2-pyridyl)amino]ethyl]-N-methylamino]hexyl]-N'-[2-[[(2-guanidino-4-thiazolyl)methyl]thio]ethyl]urea]
3.09	5.25	COc1ccc(CN(CCN(C)CCCCCCNC(=C[N+](=O)[O-])NCCSCc2csc(NC(=N)N)n2)c2ccccn2)cc1 [Example 96, N-[2-[[(2-guanidino-4-thiazolyl)methyl]thio]ethyl]-N'-[6-[N-[2-[N-(4-methoxybenzyl)-N-(2-pyridyl)amino]ethyl]-N-methylamino]hexyl]-2-nitro-1,1-ethenediamine]
24.5	1200	CN(C)Cc1ccc(CSCCNC(=O)NCCCCN(C)CCN(Cc2ccc(F)cc2)c2ccccn2)o1 [Example 103, N-[2-[[5-[(dimethylamino)methyl]furfuryl]thio]ethyl]-N'-[4-[N-[2-[N-(4-fluorobenzyl)-N-(2-pyridyl)amino]ethyl]-N-methylamino]butyl]urea]
10.7	1350	CN(C)Cc1ccc(CSCCNC(=C[N+](=O)[O-])NCCCN(C)CCN(Cc2ccc(F)cc2)c2ccccn2)o1 [Example 104, N-[2-[[5-[(dimethylamino)methyl]furfuryl]thio]ethyl]-N'-[3-[N-[2-[N-(4-fluorobenzyl)-N-(2-pyridyl)amino]ethyl]-N-methylamino]propyl]-2-nitro-1,1-ethenediamine]
36.3	28.8	CC(C1=C(CCN(C)CCCCCCNC(=C[N+](=O)[O-])NCCSCc2csc(N=C(N)N)n2)Cc2ccccc21)c1ccccn1 (stereo not drawn) [Example 105, N-[2-[[(2-guanidino-4-thiazolyl)methyl]thio]ethyl]-N'-[6-[N-methyl-N-[2-[1-(2-pyridyl)ethyl]inden-2-yl]ethylamino]hexyl]-2-nitro-1,1-ethenediamine]
